Measured values published in ChEMBL document CHEMBL5252513, “Identification of a Benzoisoxazoloazepine Inhibitor (CPI-0610) of the Bromodomain and Extra-Terminal (BET) Family as a Candidate for Human Clinical Trials” (J Med Chem, 2016).

Key:
[1] = biological target: T1, Bromodomain-containing protein 4 (Homo sapiens, UniProt O60885); experiment: Inhibition of BRD4 BD1 (unknown origin) using biotinylated ligand incubated for 60 mins by TR-FRET assay
[2] = biological target: T1, Bromodomain-containing protein 4; experiment: Inhibition of BRD4 BD1 in human MV4-11 cells assessed as reduction of MYC RNA expression after 4 hrs by PCR analysis; format: cell-based
[3] = Intrinsic clearance in human liver microsomes; format: ADME, Microsome; settings: read-out: CLH
[4] = Protein binding in human plasma; format: ADME, cell-free; settings: read-out: PPB (converted)
[5] = Intrinsic clearance in rat liver microsomes; format: ADME, Microsome
[6] = Protein binding in mouse plasma; format: ADME, cell-free; settings: read-out: PPB (converted)
[7] = Protein binding in dog plasma; format: ADME, cell-free, Canis lupus familiaris; settings: read-out: PPB (converted)
[8] = Intrinsic clearance in mouse liver microsomes; format: ADME, Microsome; settings: read-out: CLH
[9] = Protein binding in rat plasma; format: ADME, cell-free; settings: read-out: PPB (converted)
[10] = Intrinsic clearance in dog liver microsomes; format: ADME, Canis lupus familiaris, Microsome; settings: read-out: CLH
[11] = Cmax in rat at 5 mg/kg,po; format: ADME, organism-based; parameters: dose 5 mg/kg, route po; settings: in vivo
[12] = Tmax in rat at 5 mg/kg,po; format: ADME, organism-based; settings: in vivo
[13] = Clearance in rat assessed as liver blood flow at 1 mg/kg,iv; format: ADME, organism-based; settings: in vivo
[14] = Unbound AUC in rat at 5 mg/kg,po; format: ADME, organism-based; settings: in vivo
[15] = Volume of distribution at steady state in rat at 1 mg/kg,iv; format: ADME, organism-based; settings: in vivo, read-out: Vdss
[16] = Total clearance in rat at 1 mg/kg,iv; format: ADME, organism-based; settings: in vivo
[17] = AUC (0 to infinity) in rat at 5 mg/kg,po; format: ADME, organism-based; parameters: dose 5 mg/kg, route po; settings: in vivo
[18] = Half life in rat plasma at 1 mg/kg,iv; format: ADME, organism-based
[19] = Unbound clearance in rat at 1 mg/kg,iv; format: ADME, organism-based; settings: in vivo
[20] = Oral bioavailability in rat at 5 mg/kg; format: ADME, organism-based; settings: in vivo
[21] = Unbound AUC in rat at 10 mg/kg,po; format: ADME, organism-based; settings: in vivo
[22] = Tmax in rat at 10 mg/kg,po; format: ADME, organism-based; settings: in vivo
[23] = Oral bioavailability in rat at 10 mg/kg; format: ADME, organism-based; settings: in vivo
[24] = Cmax in rat at 10 mg/kg,po; format: ADME, organism-based; parameters: dose 10 mg/kg, route po; settings: in vivo
[25] = AUC (0 to infinity) in rat at 10 mg/kg,po; format: ADME, organism-based; parameters: dose 10 mg/kg, route po; settings: in vivo
[26] = biological target: T1, Bromodomain-containing protein 4; experiment: Displacement of biotinylated JQ1 from BRD4 BD1 (unknown origin) incubated for 20 mins by AlphaLISA assay

`CNc1ccc2c(n1)C(c1ccc(Cl)cc1)=NCc1onc(C)c1-2` gave an IC50 [1] of 59 nM and an EC50 [2] of 440 nM.

Work on `Cc1noc2c1-c1ccccc1C(c1ccccc1)=N[C@H]2CC(N)=O` yielded a predicted hepatic clearance [3] of less than 5 mL/min/kg, a fraction unbound [4] of 0.19 and an IC50 [1] of 110 nM. It also gave a predicted hepatic clearance (CLH) [5] of 28 mL/min/kg, a fraction unbound [6] of 0.16 and a fraction unbound [7] of 0.12. The predicted hepatic clearance [8] was 10 mL/min/kg, the fraction unbound [9] was 0.2 and the predicted hepatic clearance [10] was 17 mL/min/kg. The EC50 [2] was 250 nM.

With `COc1nccc2c1C(c1ccc(Cl)cc1)=NCc1onc(C)c1-2` the IC50 [1] was 440 nM.

Molecule `Cc1noc2c1-c1ccccc1C(c1ccc(Cl)cc1)=N[C@@H]2CC(=O)OC(C)(C)C` has an IC50 [1] greater than 80000 nM.

In the case of `Cc1noc2c1-c1cn(C)nc1C(c1ccc(Cl)cc1)=NC2`, the IC50 [1] is reported as 590 nM and the EC50 [2] is reported as 2600 nM.

`Cc1noc2c1-c1ccccc1C(c1ccc(C#N)cc1)=N[C@H]2CC(N)=O` gave a predicted hepatic clearance [3] of 9 mL/min/kg, a fraction unbound [4] of 0.11 and a Cmax [11] of 1800 nM. The IC50 [1] was 94 nM, the Tmax [12] was 49.8 min and the QH [13] was 39%. It also gave a fAUC [14] of 2 µM·h, a predicted hepatic clearance (CLH) [5] of 16 mL/min/kg and a fraction unbound [6] of 0.13. The Vd [15] was 1.2 L/kg, the fraction unbound [7] was 0.22 and the predicted hepatic clearance [8] was 29 mL/min/kg. For the same molecule, the clearance [16] was 21.7 mL/min/kg, the AUC(0-inf) [17] was 5.9 µM·h and the half-life [18] was 39.6 min. It also gave a CL free [19] of 65 mL/min/kg, a fraction unbound [9] of 0.33 and a predicted hepatic clearance [10] of less than 14 mL/min/kg. The EC50 [2] was 220 nM and the bioavailability [20] was 56%.

`Cc1noc2c1-c1c[nH]c(=O)cc1C(c1ccc(Cl)cc1)=NC2` showed an IC50 [1] of 530 nM and an EC50 [2] of 1100 nM.

Work on `Cc1onc2c1-c1ccccc1C(c1ccc(Cl)cc1)=NC2` yielded an IC50 [1] of 1300 nM.

Molecule `COc1ccc(C2=N[C@@H](CC(N)=O)c3onc(C)c3-c3ccccc32)cc1` has a predicted hepatic clearance [3] of 8 mL/min/kg, a fraction unbound [4] of 0.12 and an IC50 [1] of 48 nM. It also gave a predicted hepatic clearance (CLH) [5] of 33 mL/min/kg, a fraction unbound [6] of 0.11 and a fraction unbound [7] of 0.14. For the same molecule, the predicted hepatic clearance [8] was 83 mL/min/kg, the fraction unbound [9] was 0.21 and the predicted hepatic clearance [10] was 26 mL/min/kg. For the same molecule, the EC50 [2] was 170 nM.

Molecule `Cc1noc(N)c1-c1ccccc1` has an IC50 [1] of 20000 nM.

`Cc1nsc2c1C(c1ccc(Cl)cc1)=NCc1onc(C)c1-2` gave an IC50 [1] greater than 80000 nM and an EC50 [2] greater than 4000 nM.

`COc1ccc2c(c1)C(c1ccc(Cl)cc1)=N[C@@H](CC(N)=O)c1onc(C)c1-2` gave a fAUC [21] of 0.51 µM·h, a predicted hepatic clearance [3] of 9 mL/min/kg and a fraction unbound [4] of 0.05. For the same molecule, the Tmax [22] was 49.8 min, the bioavailability [23] was 60% and the IC50 [1] was 17 nM. The QH [13] was 66%, the predicted hepatic clearance (CLH) [5] was 35 mL/min/kg and the Cmax [24] was 1600 nM. It also gave a fraction unbound [6] of 0.03, a Vd [15] of 1.7 L/kg and a fraction unbound [7] of 0.03. It also gave a predicted hepatic clearance [8] of 26 mL/min/kg, a clearance [16] of 36.7 mL/min/kg and a half-life [18] of 38.4 min. For the same molecule, the AUC(0-inf) [25] was 8.5 µM·h, the CL free [19] was 617 mL/min/kg and the fraction unbound [9] was 0.06. The predicted hepatic clearance [10] was 21 mL/min/kg and the EC50 [2] was 64 nM.

In the case of `Cc1nnc2n1-c1ccccc1C(c1ccc(Cl)cc1)=NC2`, the IC50 [1] is reported as 1800 nM.

Work on `Cc1noc2c1-c1ccccc1C(c1ccc(Cl)cc1)=N[C@H]2CC(=O)OC(C)(C)C` yielded an IC50 [26] of 580 nM.
